Test results published in the supplement of paper PMC10307832.

Key:
Test in all cases: relative viability (nuclei count vs DMSO), 5 days (fraction); higher = more cells survive
[1] = compound: COc1cc(-c2nn([C@H]3CC[C@H](N4CCN(C(C)=O)CC4)CC3)c3ncnc(N)c23)ccc1NC(=O)c1cc2ccccc2n1C
Outline: (§1)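 Cells of lung cancer lines were placed in 1536-well plates and kept overnight at 37 °C. Pinning then delivered five library-drug doses (not always all listed), spaced by √10, onto plates anchored with vehicle, and the cells were left 5 days without changing medium. One step fixed, permeabilised and stained them with Hoechst, and MetaXpress counted nuclei in 4× images. Viability, as a median over plates, is treated-well nuclei divided by vehicle-well nuclei, with acceptance only at control CV below 25% and at least one doubling.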

Midostaurin = compound: CO[C@@H]1[C@H](N(C)C(=O)c2ccccc2)C[C@H]2O[C@]1(C)n1c3ccccc3c3c4c(c5c6ccccc6n2c5c31)C(=O)NC4 [Midostaurin]
Outline: as §1

[2] = compound: COc1cc(-c2nn([C@H]3CC[C@H](N4CCN(C(C)=O)CC4)CC3)c3ncnc(N)c23)ccc1NC(=O)c1cc2ccccc2n1C + Nc1nc2[nH]cc(CCc3ccc(C(=O)N[C@@H](CCC(=O)O)C(=O)O)cc3)c2c(=O)[nH]1 [Pemetrexed] (partner 0.2 µM)
Outline: (§2)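 One day after seeding in 1536-well plates, lung cancer cell lines were dosed by pin tool. Dosing was either single-drug or a fixed anchor-drug dose plus five library-drug doses (not always all listed) in √10 steps. After 5 days, nuclei were stained in one fix-and-stain step and counted on 4× images, and relative viability is the nuclei count of treated wells over that of vehicle wells, given as the median of duplicate plates.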

[3] = compound: COc1cc(-c2nn([C@H]3CC[C@H](N4CCN(C(C)=O)CC4)CC3)c3ncnc(N)c23)ccc1NC(=O)c1cc2ccccc2n1C + O=C(CCCCCCC(=O)Nc1ccccc1)NO [Vorinostat] (partner 1 µM)
Outline: as §2

Midostaurin + OSI-027 = compound: CO[C@@H]1[C@H](N(C)C(=O)c2ccccc2)C[C@H]2O[C@]1(C)n1c3ccccc3c3c4c(c5c6ccccc6n2c5c31)C(=O)NC4 [Midostaurin] + COc1cccc2cc(-c3nc([C@H]4CC[C@H](C(=O)O)CC4)n4ncnc(N)c34)[nH]c12 [OSI-027] (partner 0.5 µM)
Outline: as §2

Cell Line	relative viability ([1]; 0.0128 µM)	relative viability ([1]; 0.04048 µM)	relative viability ([1]; 0.128 µM)	relative viability ([1]; 1.28 µM)	relative viability (Midostaurin; 0.01 µM)	relative viability (Midostaurin; 0.03162 µM)	relative viability (Midostaurin; 0.1 µM)	relative viability (Midostaurin; 0.3162 µM)	relative viability ([2]; first compound 0.0128 µM)	relative viability ([2]; first compound 0.04048 µM)	relative viability ([2]; first compound 0.128 µM)	relative viability ([2]; first compound 1.28 µM)	relative viability ([3]; first compound 0.0128 µM)	relative viability ([3]; first compound 0.04048 µM)	relative viability ([3]; first compound 0.128 µM)	relative viability ([3]; first compound 1.28 µM)	relative viability (Midostaurin + OSI-027; first compound 0.01 µM)	relative viability (Midostaurin + OSI-027; first compound 0.03162 µM)	relative viability (Midostaurin + OSI-027; first compound 0.1 µM)	relative viability (Midostaurin + OSI-027; first compound 0.3162 µM)
201T	1.02	1.03	0.927	0.716	0.984	0.918	1	1.03	0.394	0.288	0.316	0.309	1.01	1.1	0.909	0.654	0.725	0.787	0.751	0.818
A549	0.995	0.952	0.979	0.957	0.994	0.857	0.953	0.744	–	–	–	–	–	–	–	–	–	–	–	–
A-427	1.05	0.837	0.973	0.863	0.927	0.879	1.03	0.985	0.972	1.07	0.906	0.93	0.9	0.972	0.763	0.856	0.449	0.467	0.434	0.512
ABC-1	0.879	0.885	0.756	0.805	0.867	0.962	0.948	0.96	–	–	–	–	1.21	0.965	1.19	1.14	0.488	0.536	0.574	0.521
BEN	0.816	0.985	0.884	0.702	0.98	0.964	1.03	1.19	0.686	0.814	0.871	0.664	0.591	0.561	0.59	0.483	0.324	0.273	0.267	0.32
CAL-12T	1.03	1.03	1.06	0.991	1.05	0.882	0.921	0.839	1.39	1.21	1.15	1.12	0.871	0.706	0.702	0.753	0.779	0.475	0.531	0.307
COR-L23	1.06	1.1	0.92	1.08	0.998	0.946	0.958	0.875	0.193	0.206	0.189	0.204	0.528	0.615	0.42	0.558	0.706	0.681	0.795	0.802
COR-L 105	0.811	1.09	0.863	0.596	0.953	0.858	0.828	0.874	1.08	1.11	1.1	0.836	0.75	1.04	0.907	0.584	0.793	0.548	0.607	0.551
Calu-6	1.04	1.04	0.899	0.764	0.946	0.984	0.985	1.01	–	–	–	–	–	–	–	–	–	–	–	–
ChaGo-K-1	1.03	0.98	0.891	0.898	0.919	1.07	0.932	1.02	0.258	0.26	0.252	0.237	0.802	0.768	0.679	0.555	0.645	0.737	0.671	0.599
EBC-1	1.06	1.07	1.01	1.02	1.01	0.9	0.959	0.684	–	–	–	–	–	–	–	–	–	–	–	–
EKVX	0.941	1.06	0.987	0.56	0.991	0.886	0.95	1	0.43	0.4	0.373	0.374	0.966	0.801	0.674	0.382	0.786	0.616	0.674	0.657
EMC-BAC-2	1.04	1.17	0.941	0.957	0.928	0.903	0.858	0.954	0.445	0.557	0.426	0.493	0.466	0.602	0.418	0.504	0.346	0.31	0.336	0.218
EPLC-272H	0.906	0.873	0.963	0.865	1.04	0.944	0.93	0.969	0.406	0.338	0.287	0.253	0.357	0.345	0.62	0.457	0.301	–	0.289	0.305
H3255	0.996	0.962	0.946	0.763	0.971	0.948	0.876	0.966	0.628	0.567	0.578	0.489	1.01	0.725	0.824	0.708	0.592	0.512	0.622	0.593
HARA	1.03	0.828	0.879	0.612	0.98	0.87	0.974	0.932	0.213	0.233	0.216	0.184	0.698	0.372	0.421	0.325	0.672	0.4	0.516	0.757
HCC-15	1.21	0.785	0.971	1.06	1.05	0.902	1.05	1.05	0.227	0.228	0.198	0.225	0.954	0.752	0.85	0.698	0.758	0.624	0.698	0.717
HCC-44	1.06	1.13	0.954	1.17	1	0.965	0.996	0.985	0.719	0.742	0.607	0.687	1.24	1.1	1.12	1.18	–	0.501	0.529	0.401

Cell Line	relative viability ([1]; 0.0128 µM)	relative viability ([1]; 0.04048 µM)	relative viability ([1]; 0.128 µM)	relative viability ([1]; 1.28 µM)	relative viability (Midostaurin; 0.01 µM)	relative viability (Midostaurin; 0.03162 µM)	relative viability (Midostaurin; 0.1 µM)	relative viability (Midostaurin; 0.3162 µM)	relative viability ([2]; first compound 0.0128 µM)	relative viability ([2]; first compound 0.04048 µM)	relative viability ([2]; first compound 0.128 µM)	relative viability ([2]; first compound 1.28 µM)	relative viability ([3]; first compound 0.0128 µM)	relative viability ([3]; first compound 0.04048 µM)	relative viability ([3]; first compound 0.128 µM)	relative viability ([3]; first compound 1.28 µM)	relative viability (Midostaurin + OSI-027; first compound 0.01 µM)	relative viability (Midostaurin + OSI-027; first compound 0.03162 µM)	relative viability (Midostaurin + OSI-027; first compound 0.1 µM)	relative viability (Midostaurin + OSI-027; first compound 0.3162 µM)
HCC-78	1.06	1.06	0.912	0.567	1.01	0.814	1.03	0.606	0.939	0.879	0.889	0.91	0.462	0.547	0.422	0.298	0.432	0.332	0.381	0.299
HCC-366	0.995	1.04	0.977	0.916	0.913	1.03	1.02	0.955	0.141	0.24	0.208	0.232	0.432	0.361	0.346	0.451	0.961	0.954	0.567	0.811
HCC-827	0.98	1.03	0.957	0.753	1.02	1.04	0.972	1.04	0.253	0.251	0.211	0.238	0.72	0.979	0.765	0.389	0.719	0.708	0.821	0.8
HOP-62	1.11	0.962	1.03	1.12	0.88	0.893	1.06	1.1	0.382	0.332	0.289	0.387	1.01	0.546	0.601	0.585	0.779	0.754	0.947	0.686
IA-LM	1.04	0.999	1.05	0.991	0.93	0.677	0.918	0.941	–	–	–	–	1.07	0.877	0.79	0.912	–	–	–	–
LC-2-ad	1.09	0.976	0.959	0.958	0.97	0.936	0.957	0.892	0.304	0.277	0.243	0.275	0.857	0.742	0.703	0.703	0.792	0.791	0.898	0.847
LCLC-97TM1	0.943	0.879	0.946	0.931	1.02	0.867	1.06	1.17	0.182	0.185	0.171	0.19	0.875	0.395	0.735	0.968	0.439	0.404	0.434	0.557
LCLC-103H	1.06	1.01	1	1.07	1.05	0.922	0.979	1	0.54	0.428	0.47	0.471	0.63	0.768	0.802	0.819	0.506	0.417	0.425	0.465
LK-2	1	0.949	0.943	0.794	0.998	1.04	0.947	1	0.298	0.248	0.27	0.133	0.365	0.162	0.288	0.183	0.232	0.232	0.248	0.197
LOU-NH91	0.985	1.04	0.978	0.853	1.02	0.89	0.967	1	0.395	0.348	0.363	0.433	0.987	0.921	0.909	0.858	0.74	0.67	0.747	0.802
LU99A	1.03	0.84	0.998	0.982	0.881	1.14	0.887	0.939	0.162	0.225	0.169	0.252	0.609	0.523	0.426	0.628	0.279	0.309	0.258	0.277
NCI-H727	0.974	–	0.826	0.906	1.03	0.82	1.05	0.767	–	–	–	–	1.35	–	1.22	1.25	0.673	0.492	0.538	0.479
NCI-H1299	1.06	1.11	1	1	1.01	0.974	0.975	0.965	–	–	–	–	–	–	–	–	–	–	–	–
NCI-H1563	1.04	1.12	0.971	0.709	1.09	1.03	0.957	0.769	0.755	0.778	0.853	0.582	–	–	–	–	0.766	0.727	0.72	0.745
NCI-H1623	1.01	1.05	0.946	0.739	0.982	0.956	1.05	1.23	–	–	–	–	–	–	–	–	0.455	0.471	0.465	0.561
NCI-H1703	0.968	0.581	0.803	0.324	0.958	0.869	0.64	0.266	–	–	–	–	–	–	–	–	–	–	–	–
NCI-H1792	0.975	0.878	1.02	0.951	0.954	0.697	0.929	0.777	0.883	0.913	0.797	0.729	–	–	–	–	0.664	0.8	0.659	0.617
